The results in this text go back to patent US8796283B2, “Indole and azaindole modulators of the alpha 7 nachr” (Proximagen Limited, priority 2009, dated 2014).

Where a name gives a salt, the structure may show the parent alone. Where only a bound is given, the exact number is not on record here.

The term pEC50 denotes −log10 of the EC50, conventionally taken in molar units.

The target in one assay is T1, human α7 nAChR (Homo sapiens, UniProt P36544).
T1 construct: expressed in transfected cells; host or cells: GH4C1 (rat pituitary) cell line, stably transfected
T1 sequence (P36544 23-502): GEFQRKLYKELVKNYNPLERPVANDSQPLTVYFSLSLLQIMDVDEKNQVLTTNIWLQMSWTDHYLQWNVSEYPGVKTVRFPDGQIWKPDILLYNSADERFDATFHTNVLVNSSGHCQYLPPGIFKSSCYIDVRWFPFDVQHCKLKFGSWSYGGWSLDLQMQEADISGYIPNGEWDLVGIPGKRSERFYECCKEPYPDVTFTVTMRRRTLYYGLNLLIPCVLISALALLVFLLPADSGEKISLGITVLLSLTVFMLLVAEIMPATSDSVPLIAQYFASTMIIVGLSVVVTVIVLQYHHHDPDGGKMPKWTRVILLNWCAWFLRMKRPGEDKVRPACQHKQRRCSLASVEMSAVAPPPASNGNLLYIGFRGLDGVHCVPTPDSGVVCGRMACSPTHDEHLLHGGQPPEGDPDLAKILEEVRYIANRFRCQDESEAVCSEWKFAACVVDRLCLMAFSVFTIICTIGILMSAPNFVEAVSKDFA
The experiment in a line: cell-based calcium flux assay (FLIPR) for PAM activity, nicotine-evoked response. As to conditions: GH4C1 cell line stably transfected with human α7 nAChR; potentiation of nicotine calcium flux. As for the experimental part: The PAM activity of the compounds of the invention at the α7 nAChR may be determined using the following cell-based calcium flux assay which uses a Fluorimetric Image Plate Reader (FLIPR) (see Schroeder et al.; J. Biomolecular Screening, 1(2), p 75-80, 1996). GH4C1 cell line stably transfected with human α7 nAChR was suspended in a 384 well plate and incubated at 30° C. for 48 h in a 5% carbon dioxide atmosphere. The growth media was removed and the cells washed three times with a solution of Hanks' balanced salt solution (HBSS), 20 mM HEPES and 2.5 mM probenecid leaving 20 μl washing solution in each well. A loading solution (20 μl) containing HBSS, probenecid, 1-4 μM Fluo4 AM (a calcium indicator dye) and pluronic acid was added and the plate incubated for 45 min at 37° C. under an atmosphere free from carbon dioxide. The cells were washed three times leaving 30 μl in each well. The plate containing the cells and calcium indicator dye were then transferred to the FLIPR. The assay was initiated by collecting baseline datapoints at 10 second intervals followed by addition of the test compound in buffer solution (0.33% DMSO) and diluted to a final concentration of 10 μM and serial dilution of the wells, 1:2 or 1:3, gave a low concentration of <1 nM. Following a further 5-10 mins 10 μl of 50 μM nicotine was added and data collected for 2-3 mins. Nicotine produced a rapid, transient and reproducible calcium flux which could be potentiated with the positive allosteric modulator test compounds.
(Calcium assays in cells follow changes in intracellular calcium, usually with a dye or a luminescent sensor.)
For the molecule `CCc1cc(NCc2cnc3[nH]c(C(F)(F)F)cc3c2)ncn1.Cl` [5 HCl, 6-Ethyl-N-{[2-(trifluoromethyl)-1H-pyrrolo[2,3-b]pyridin-5-yl]methyl}-4-pyrimidinamine HCl], the “pEC50 Mean” value is on record as “* (pEC50 mean of at least 5.0)”. On to `CC(F)(F)c1cc(NCc2cnc3[nH]c(C(F)(F)F)cc3c2)ncn1.Cl` [8 HCl, 6-(1,1-Difluoroethyl)-N-{[2-(trifluoromethyl)-1H-pyrrolo[2,3-b]pyridin-5-yl]methyl}-4-pyrimidinamine hydrochloride], for which the pEC50 was 6 and the “pEC50 Mean” value is reported as “*** (pEC50 mean of at least 6.0)”.

Consider `Cl.FC(F)c1cc(NCc2cnc3[nH]c(C(F)(F)F)cc3c2)ncn1` [10 HCl, 6-(Difluoromethyl)-N-{[2-(trifluoromethyl)-1H-pyrrolo[2,3-b]pyridin-5-yl]methyl}-4-pyrimidinamine hydrochloride], for which the “pEC50 Mean” value is “** (pEC50 mean of at least 5.5)”. Consider `Cl.FC(F)(F)c1cc2cc(CNc3cc(C4CC4)ncn3)cnc2[nH]1` [14 HCl], for which the “pEC50 Mean” value is recorded as “* (pEC50 mean of at least 5.0)”.

The assay is the same for the next values; noted with them: GH4C1 cell line stably transfected with human α7 nAChR; potentiation of nicotine calcium flux; read-out: pEC50 (converted).
With `CC(F)(F)c1cc(NCc2cnc3[nH]c(C(F)(F)F)cc3c2)ncn1` [Example 8, 6-(1,1-Difluoroethyl)-N-{[2-(trifluoromethyl)-1H-pyrrolo[2,3-b]pyridin-5-yl]methyl}-4-pyrimidinamine], the EC50 is 1 µM. For the molecule `[2H]C([2H])(Nc1cc(C(C)(F)F)ncn1)c1cnc2[nH]c(C(F)(F)F)cc2c1` [Example 8-d], the EC50 was 1.26 µM. For `CC(C)(F)c1cc(NCc2cnc3[nH]c(C(F)(F)F)cc3c2)ncn1` [Example 15, 6-(1-Fluoro-1-methylethyl)-N-{[2-(trifluoromethyl)-1H-pyrrolo[2,3-b]pyridin-5-yl]methyl}-4-pyrimidinamine], the EC50 is 0.398 µM.

As to `[2H]C([2H])(Nc1cc(C(C)(C)F)ncn1)c1cnc2[nH]c(C(F)(F)F)cc2c1` [Example 15-d, 6-(1-Fluoro-1-methylethyl)-N-{[2-(trifluoromethyl)-1H-pyrrolo[2,3-b]pyridin-5-yl]methyl}-4-pyrimidinamine-d2], the EC50 is 0.631 µM.

The same assay, now with this note: GH4C1 cell line stably transfected with human α7 nAChR; potentiation of nicotine calcium flux; read-out: pEC50 Mean (converted).
`CC(F)c1cc(NCc2cnc3[nH]c(C(F)(F)F)cc3c2)ncn1` (stereo not drawn) [9 HCl]: the EC50 was no more than 3.16 µM. On the same count and under the same terms, the result for `FCc1cc(NCc2cnc3[nH]c(C(F)(F)F)cc3c2)ncn1` [11 HCl, 6-(Fluoromethyl)-N-{[2-(trifluoromethyl)-1H-pyrrolo[2,3-b]pyridin-5-yl]methyl}-4-pyrimidinamine hydrochloride] reads no more than 10 µM. In the case of `Cl.[2H]C([2H])(Nc1cc(C2CC2)ncn1)c1cnc2[nH]c(C(F)(F)F)cc2c1` [14-d HCl], the EC50 was no more than 3.16 µM.

Regarding `CCc1ncnc(NCc2cnc3[nH]c(C(F)(F)F)cc3c2)c1F` [16 HCl, 6-Ethyl-5-fluoro-N-{[2-(trifluoromethyl}-1H-pyrrolo[2,3-b]pyridin-5-yl]methyl}-4-pyrimidinamine hydrochloride], the EC50 is no more than 1 µM. With `Cc1c(NCc2cnc3[nH]c(C(F)(F)F)cc3c2)ncnc1C(C)F` (stereo not drawn) [20 HCl], the EC50 is no more than 1 µM.

As to `Cc1c(NCc2cnc3[nH]c(C(F)(F)F)cc3c2)ncnc1C(C)(F)F` [21 HCl], the EC50 was no more than 1 µM. Turning to `Cc1c(NCc2cnc3[nH]c(C(F)(F)F)cc3c2)ncnc1C(F)(F)F` [22 HCl, 5-Methyl-6-(trifluoromethyl)-N-{[2-(trifluoromethyl)-1H-pyrrolo[2,3-b]pyridin-5-yl]methyl}-4-pyrimidinamine hydrochloride], the EC50 is no more than 1 µM.

As for `Cc1c(CF)ncnc1NCc1cnc2[nH]c(C(F)(F)F)cc2c1` [24 HCl], the EC50 is no more than 10 µM.

With `Cc1c(NCc2cnc3[nH]c(C(F)(F)F)cc3c2)ncnc1C1CC1` [25 HCl, 6-Cyclopropyl-5-methyl-N-{[2-(trifluoromethyl)-1H-pyrrolo[2,3-b)pyridin-5-yl]methyl}-4-pyrimidinamine hydrochloride], the EC50 is no more than 3.16 µM. As to `FC(F)(F)c1cc(NCc2cnc3[nH]c(C(F)(F)F)cc3c2)ncn1` [Example 1, 6-(Trifluoromethyl)-N-{[2-(trifluoromethyl)-1H-pyrrolo[2,3-b]pyridin-5-yl]methyl}-4-pyrimidinamine], the EC50 was no more than 1 µM. For `CC(C)c1cc(NCc2cnc3[nH]c(C(F)(F)F)cc3c2)ncn1` [Example 2, 6-(1-Methylethyl)-N-{[2-(trifluoromethyl)-1H-pyrrolo[2,3-b]pyridin-5-yl]methyl}-4-pyrimidinamine], the EC50 was no more than 10 µM. On to `N#Cc1cc(NCc2cnc3[nH]c(C(F)(F)F)cc3c2)ncn1` [Example 3, 6-({[2-(Trifluoromethyl)-1H-pyrrolo[2,3-b]pyridin-5-yl]methyl}amino)-4-pyrimidinecarbonitrile], for which the EC50 was no more than 3.16 µM. On to `CC(C)(C)c1cc(NCc2cnc3[nH]c(C(F)(F)F)cc3c2)ncn1` [Example 4, 6-(1,1-Dimethylethyl)-N-{[2-(trifluoromethyl)-1H-pyrrolo[2,3-b]pyridin-5-yl]methyl}-4-pyrimidinamine], for which the EC50 is no more than 3.16 µM. As for `CCc1cc(NCc2cnc3[nH]c(C(F)(F)F)cc3c2)ncn1` [Example 5, 6-Ethyl-N-{[2-(trifluoromethyl)-1H-pyrrolo[2,3-b]pyridin-5-yl]methyl}-4-pyrimidinamine], the EC50 is no more than 10 µM.

With `N#CCc1cc(NCc2cnc3[nH]c(C(F)(F)F)cc3c2)ncn1` [Example 6, [6-({[2-(Trifluoromethyl)-1H-pyrrolo[2,3-b]pyridin-5-yl]methyl}amino)-4-pyrimidinyl]acetonitrile], the EC50 is no more than 10 µM. Still for that read-out and setting: under `CC(=O)c1cc(NCc2cnc3[nH]c(C(F)(F)F)cc3c2)ncn1` [Example 7, 1-[6-({[2-(Trifluoromethyl)-1H-pyrrolo[2,3-b]pyridin-5-yl]methyl}amino)-4-pyrimidinyl]ethanone] stands no more than 10 µM. In the case of `CC(F)(F)c1cc(NCc2cnc3[nH]c(C(F)(F)F)cc3c2)ncn1` [Example 8, 6-(1,1-Difluoroethyl)-N-{[2-(trifluoromethyl)-1H-pyrrolo[2,3-b]pyridin-5-yl]methyl}-4-pyrimidinamine], the EC50 was no more than 1 µM. Regarding `[2H]C([2H])(Nc1cc(C(C)(F)F)ncn1)c1cnc2[nH]c(C(F)(F)F)cc2c1` [Example 8-d], the EC50 is no more than 3.16 µM. As to `CC(F)c1cc(NCc2cnc3[nH]c(C(F)(F)F)cc3c2)ncn1` (stereo not drawn) [Example 9, 6-(1-Fluoroethyl)-N-{[2-(trifluoromethyl)-1H-pyrrolo[2,3-b]pyridin-5-yl]methyl}-4-pyrimidinamine], the EC50 was no more than 10 µM.

In the case of `FC(F)c1cc(NCc2cnc3[nH]c(C(F)(F)F)cc3c2)ncn1` [Example 10, 6-(Difluoromethyl)-N-{[2-(trifluoromethyl)-1H-pyrrolo[2,3-b]pyridin-5-yl]methyl}-4-pyrimidinamine], the EC50 was no more than 3.16 µM.

In the case of `FCc1cc(NCc2cnc3[nH]c(C(F)(F)F)cc3c2)ncn1` [Example 11, 6-(Fluoromethyl)-N-{[2-(trifluoromethyl)-1H-pyrrolo[2,3-b]pyridin-5-yl]methyl}-4-pyrimidinamine], the EC50 was no more than 3.16 µM. For the molecule `FC(F)(F)c1cc(NCc2ccc3[nH]c(C(F)(F)F)cc3c2)ncn1` [Example 12, 6-(Trifluoromethyl)-N-{[2-(trifluoromethyl)-1H-indol-5-yl]methyl}-4-pyrimidinamine], the EC50 was no more than 3.16 µM. On to `FC(F)(F)c1cc2cc(CNc3cc(Cl)ncn3)ccc2[nH]1` [Example 13, 6-Chloro-N-{[2-(trifluoromethyl)-1H-indol-5-yl]methyl}-4-pyrimidinamine], for which the EC50 is no more than 10 µM. Regarding `FC(F)(F)c1cc2cc(CNc3cc(C4CC4)ncn3)cnc2[nH]1` [Example 14, 6-Cyclopropyl-N-{[2-(trifluoromethyl)-1H-pyrrolo[2,3-b]pyridin-5-yl]methyl}-4-pyrimidinamine], the EC50 was no more than 10 µM. As to `CC(C)(F)c1cc(NCc2cnc3[nH]c(C(F)(F)F)cc3c2)ncn1` [Example 15, 6-(1-Fluoro-1-methylethyl)-N-{[2-(trifluoromethyl)-1H-pyrrolo[2,3-b]pyridin-5-yl]methyl}-4-pyrimidinamine], the EC50 is no more than 1 µM.

Regarding `[2H]C([2H])(Nc1cc(C(C)(C)F)ncn1)c1cnc2[nH]c(C(F)(F)F)cc2c1` [Example 15-d, 6-(1-Fluoro-1-methylethyl)-N-{[2-(trifluoromethyl)-1H-pyrrolo[2,3-b]pyridin-5-yl]methyl}-4-pyrimidinamine-d2], the EC50 was no more than 1 µM. With `FC(F)(F)c1cc2cc(CNc3cc(Cl)ncn3)cnc2[nH]1` [Example 17, 6-Chloro-N-{[2-(trifluoromethyl)-1H-pyrrolo[2,3-b]pyridin-5-yl]methyl}-4-pyrimidinamine], the EC50 is no more than 3.16 µM.

In the case of `CCc1cc(NCc2ccc3[nH]c(C(F)(F)F)cc3c2)ncn1` [Example 18, 6-Ethyl-N-{[2-(trifluoromethyl)-1H-indol-5-yl]methyl}-4-pyrimidinamine], the EC50 is no more than 10 µM. With `CCc1ncnc(NCc2cnc3[nH]c(C(F)(F)F)cc3c2)c1C` [Example 19, 6-Ethyl-5-methyl-N-{[2-(trifluoromethyl)-1H-pyrrolo[2,3-b]pyridin-5-yl]methyl}-4-pyrimidinamine], the EC50 was no more than 10 µM. In the case of `Cc1c(NCc2cnc3[nH]c(C(F)(F)F)cc3c2)ncnc1C(F)F` [Example 23, 6-(difluoromethyl)-5-methyl-N-{[2-(trifluoromethyl)-1H-pyrrolo[2,3-b]pyridin-5-yl]methyl}-4-pyrimidinamine], the EC50 is no more than 3.16 µM.
